In series [1] the test system is TCR-stimulated human CD4+ T cells. Nature of the series: 3H-leucine uptake assay. The format is cell-based. Conditions: BCH 50 mM, JPH203 10 μM, LβhL 400 mg/L. On the procedure:
After the culture medium was removed, the cells were cultured in HBSS for 10 minutes. ^3H-leucine or ^3H-methionine (Perkin Elmer, Waltham, MA) uptake assays were initiated by culturing cells for 15 min in HBSS with 0.5-1 μCi. Cells were separated with 1 M NaOH after three washes with ice-cold HBSS. Radioactivity was measured using a beta scintillation counter MicroBeta® (Perkin Elmer).

The subject of series [2] is human CD4+ naive and memory T cells. Briefly: CFSE dilution proliferation assay. The format is cell-based. Conditions: anti-CD3/CD28 microbeads; Bi2 10 μM, JPH203 10 μM, LβhL 400 mg/L. How it is done:
To analyze T cell proliferative capacity, purified isolated human CD4+ T cells were labeled with 1 μM carboxyfluorescein succinimidyl ester (CFSE; Invitrogen, Waltham, MA, USA) and then stimulated with anti-CD3/CD28 antibody coated microbeads for 4 days at 37° C. Cells were stained with 7AAD (BD Biosciences) for 10 minutes to distinguish dead cells and the extent of CFSE dilution in 7AAD-cells was measured by BD LSRFortessa to analyze proliferative capacity. Antibodies listed in Table 2 and previously known BD LSRFortessa cell analyzers were used.

Series [3] relates to TCR-stimulated human CD4+ memory T cells. Briefly: Cytokine ELISA of culture supernatants, CD4+ memory T cells. In kind it is cell-based. Conditions: for IFN-γ production by CD4+ memory T cells / IL-17A production by CD4+ memory T cells: TCR stimulation 3 days, Bi2 10 μM, JPH203 10 μM, LβhL 400 mg/L; for IFN-γ production by CD4+ memory T cells: HMB 0.4 mM, VH298 100 nM; for IL-17A production by CD4+ memory T cells: statin 10 μM. On the procedure: The study protocol was reviewed and approved by the Institutional Review Board (IRB) of Seoul National University Hospital. Peripheral blood was drawn from healthy controls (HC) after obtaining written consent from study participants, and all experiments were performed according to approved guidelines. Peripheral blood mononuclear cells (PBMCs) were isolated from peripheral blood using density gradient centrifugation (Biocoll separation solution; BIOCHROM Inc., Cambridge, UK). Total CD4^+ T cells, naive T cells and memory CD4^+ T-cells were isolated in a negative selection manner from CD14^+ monocyte depleted PBMCs using the MojoSort™ Human Total CD4^+ T-Cells, CD4^+ naive T-cells and CD4^+ memory T-cell isolation kit (BioLegend, San Diego, Calif.). Purified T cells were cultured in RPMI 1640 medium (hereinafter, “complete RPMI 1640”) supplemented with 10% fetal bovine serum (FBS), 1% penicillin/streptomycin, and 1% L-glutamine. Cells were stimulated with anti-CD3/CD28-coated microbeads (1:10 ratio, Dynabeads T-Activator CD3/CD28, Thermo Fisher Scientific, Waltham, MA) in the presence of designated chemical inhibitors or reagents including 2-amino-2-norbornanecarboxylic acid (BCH), JPH203, acetate, MG132, VH298, cobalt chloride (CoCl2), cycloheximid (CHX) (all provided by Sigma-Aldrich, St. Louis, MO), BCAT1 inhibitor 2 (Bi2: provided by Cayman Chemical, Ann Arbor, MI), 3-hydroxy-3-methylbutyric acid (HMB; provided by Thermo Fisher Scientific, Waltham, MA), and L-β-homoleucine (LβhL; provided by Santa Cruz Biotechnology, Heidelberg, Germany). In some experiments, a customized medium depleted of five essential amino acids (leucine, valine, isoleucine, phenylalanine, methionine) was used (Welgene, Gyeongsan, South Korea). All amino acids used (L-leucine, L-valine, L-isoleucine, L-phenylalanine, L-methionine) were purchased from Sigma-Aldrich.
IL-17A and IFN-γ amounts in culture supernatants were quantified using commercially available human ELISA kits (IL-17A ELISA kit by eBioscience and human IFN-γ ELISA MAX Deluxe by BioLegend) according to the manufacturer's instructions. Light density was measured using an Infinite M200 instrument (Tecan, Männedorf, Switzerland).
For orientation: An ELISA detects its analyte on a solid surface through an enzyme-linked reagent.

Series [4] relates to TCR-stimulated human CD4+ naive T cells. Nature of the series: Cytokine ELISA of culture supernatants, CD4+ naive T cells. In kind it is cell-based. Conditions: TCR stimulation 3 days.
The subject of series [5] is HIF-1α. Briefly: HIF-1α immunoblot in TCR-stimulated CD4+ memory T cells. The format is cell-based, human. Conditions: for HIF-1α expression reduced by Bi2 (effect of added substance): Bi2 plus HMB 0.4 mM, CoCl2, VH298 or MG132; for HIF-1α protein expression: TCR-stimulated CD4+ memory T cells, Bi2 10 μM, CoCl2 100 μM, VH298 100 μM, MG132 5 μM. On the procedure:
(§1) Cells were cultured in radioimmunoprecipitation assay (RIPA) buffer (150 mM NaCl, 10 mM Na2HPO4, pH 7.2, 1% Nonidet P-40, 0.5% deoxycholate) containing phenylmethylsulfonyl fluoride (PMSF; Millipore Sigma, Burlington, MA), EDTA, protease and phosphatase inhibitor cocktail (Thermo Fisher Scientific) to extract total protein. Proteins were separated on 8-10% SDS-polyacrylamide gels and blotted onto polyvinylidene difluoride (PVDF) membranes (Bio-Rad, Hercules, CA) followed by 5% BSA in Tris buffered saline (TBS) with 0.1% Tween 20 and blocked for 1 hour. Membranes were cultured overnight with anti-human SLC7A5, anti-BCAT, anti-phospho-p70S6K, anti-p70S6K, anti-HIF-1α (all provided by Cell Signaling Technology, Danvers, MA) primary antibodies at 4° C., followed by culture with HRP-conjugated secondary antibodies for 1 hour at room temperature. Membranes were developed using SuperSignal West Femto Maximum Sensitivity Substrate or SuperSignal West Pico PLUS Chemiluminescent Substrate system (Thermo Fisher Scientific).

The test system of series [6] is human CD4+ memory T cells. Briefly: Cholesterol analysis in cell lysates. The format is cell-based. Conditions: Bi2 10 μM plus HMB 0.4 mM. How it is done: Total cholesterol amount in cultured cells was determined using a fluorometric Amplex™ Red Cholesterol Assay Kit (Thermo Fisher Scientific) according to the manufacturer's instructions.
The test system of series [7] is HIF-1α. Briefly: RT-qPCR of HIF-1α and HIF-1α target genes in CD4+ memory T cells. In kind it is cell-based, human. Conditions: HMB 0.4 mM. How it is done:
Total RNA was prepared using TRIzol reagent (Life Technologies, Grand Island, NY), followed by cDNA synthesis (Promega, Madison, WI), followed by real-time quantitative RT-PCR with a CFX system (Bio-Rad, Hercules, CA) using SensiFAST SYBR® Lo-ROX (Bioline, London. UK). Gene expression levels were normalized for […] expression using the comparative CT method (ΔΔCT).
On the technique in general: In qPCR the cycle at which signal appears reflects the starting amount.

The subject of series [8] is mTORC1. Briefly: Phospho-p70-S6K immunoblot (mTORC1 activity) in CD4+ memory T cells. The format is cell-based, human. Conditions: HMB 0.4 mM, TCR stimulation 1 hour. How it is done: as §1
(In general: In western blotting, separated proteins are transferred to a membrane and probed.)

The conditions of series [9]: oral administration, healthy adults; cited from earlier work.
Series [10] deals with EAE mice. Briefly: Experimental autoimmune encephalomyelitis (EAE) model. The format is in vivo, mouse.
The mark [11] stands for this setting: Bi2 10 μM plus acetate, HMB or VH298, 3 days.
Setting [12] is: Bi2 10 mg/kg or LβhL 1 g/kg i.p.

Entries after “also recorded” stand apart in the source; their conditions may differ. Like-named read-outs stand apart in the source and are kept apart here. Residues, ends and D or L forms follow the SMILES beside them. *: point of attachment. Cbz = O=C(OCc1ccccc1)*

Consider `NC1(C(=O)O)CC2CCC1C2` (centres unmarked) [BCH, 2-amino-2-norbornanecarboxylic acid], for which the 3H-leucine uptake entry in series [1] is listed as “greatly reduced”.

`Nc1cc(COc2c(Cl)cc(C[C@H](N)C(=O)O)cc2Cl)c2oc(-c3ccccc3)nc2c1` [JPH203]: in series [1], the 3H-leucine uptake entry is on record as “greatly reduced”. Moreover, the “proliferation (CFSE dilution)” value in series [2] was “completely blocked”. Also, in series [3], the “IFN-γ production by CD4+ memory T cells” value is “decreased significantly” and the “IL-17A production by CD4+ memory T cells” value is “decreased significantly”. Besides, the “IL-2 production by CD4+ naive T cells” value in [4] was “not affected”.

Regarding `CC(=O)O` [acetate], in [3] (setting [11]), the “IL-17A production in Bi2-treated CD4+ memory T cells (effect of added substance)” value (from here on “IL-17A production … (effect of added substance)”) is “dose-dependently reduced”. Also, the “IFN-γ production in Bi2-treated CD4+ memory T cells (effect of added substance)” value in series [3] (Bi2 10 μM plus acetate, 3 days) is on record as “upregulated”.

Consider `CC(C)C[C@@H](C=O)NC(=O)[C@H](CC(C)C)NC(=O)[C@H](CC(C)C)NC(=O)OCc1ccccc1` [MG132] (Cbz-Leu-Leu-Leu-aldehyde), for which, in series [5], the “HIF-1α expression reduced by Bi2 (effect of added substance)” value (from here on “HIF-1α expression reduced by Bi2”) was “none of these inhibitors affected” and the HIF-1α protein expression result is “accumulation of HIF-1α”.

Regarding `[Cl][Co][Cl]` [CoCl2, cobalt chloride], in [5], the “HIF-1α expression reduced by Bi2” value is given as “none of these inhibitors affected” and the HIF-1α protein expression result is recorded as “accumulation of HIF-1α”.

On to `Cc1ncsc1-c1ccc(CNC(=O)[C@@H]2C[C@@H](O)CN2C(=O)[C@@H](NC(=O)C2(C#N)CC2)C(C)(C)C)cc1` [VH298], for which, in [3], the “IL-17A production … (effect of added substance)” value was “restores; also recorded: fully restored” and the “IFN-γ production by CD4+ memory T cells” value is “did not affect”. Also, in series [5], the “HIF-1α expression reduced by Bi2” value is reported as “none of these inhibitors affected” and the HIF-1α protein expression entry is on record as “accumulation of HIF-1α”.

`CC(C)(O)CC(=O)O` [HMB, 3-hydroxy-3-methylbutyric acid]: the “IL-17A production … (effect of added substance)” value in [3] (setting [11]) was “partially reversed; also recorded: resolved”. For the same compound, the “IFN-γ production by CD4+ memory T cells” value in [3] is recorded as “not affected; also recorded: did not affect”. In addition, the “cholesterol in Bi2-treated cells (effect of HMB supplementation)” value in series [6] is “inhibited; also recorded: decreased”. For the same compound, in [5] (24 h Bi2 pretreatment, cycloheximide chase, with or without HMB), the HIF-1α degradation rate result is given as “did not affect”. Moreover, the “HIF-1α expression reduced by Bi2” value in series [5] was “abrogates this attenuation; also recorded: reversed; also recorded: increased”. The “Bi2-reduced HIF-1α mRNA (effect of HMB supplementation)” value in [7] is reported as “rapidly abolished”. Moreover, in series [7] (72 hours of TCR stimulation), the “Bi2-reduced SCL2A1, LDHA and PGK1 mRNA (effect of HMB supplementation)” value was “eliminated”. Also, in series [8], the “inhibition of mTORC1 activity by Bi2 (effect of HMB supplementation)” value is given as “time dependently counteracted”. Also, in series [9], the plasma half-life result was “about 2.5 hours”, the plasma level achievable was 400 µM and the “time to peak plasma level” value is 60 to 120 min.

For `CC(C)C[C@H](N)CC(=O)O` [LβhL, L-β-homoleucine], in series [1], the 3H-leucine uptake result is reported as “competitively inhibited”. The “proliferation (CFSE dilution)” value in series [2] is “did not affect”. Besides, the “IL-17A production by CD4+ memory T cells” value in [3] is recorded as “preferentially reduced; also recorded: attenuates”. In addition, in [10] (setting [12]), the “CD4+ T-cells producing IL-17A in spinal cord infiltrates and draining LN” value is “significantly reduced”; the “HIF-1α expression in CD4+ T-cells of spinal cord (intracellular staining)” value is “decreased”; the “cell infiltration in spinal cord” value is reported as “significantly lower”; the “nerve damage, spinal cord histology” value is recorded as “significantly lower”. Also, the “EAE clinical score / severity” value in series [10] (i.p. three times a week for 14 days, Bi2 10 mg/kg, LβhL 1 g/kg) is “attenuated; also recorded: improves EAE induction”.
